For orientation: IC50 means the concentration needed to halve the response being measured. Lower therefore signals higher potency.

Counter-ions that a name gives are not always drawn.

For the assay, the target named is T1, human BCKDK (Homo sapiens, UniProt O14874).
T1 construct: human BCKDK (residues 31-412 of the protein pre-processing); 6xHis (N, cleaved yes); MBP (N, cleaved yes); TEV protease site (ENLYFQG) (N, cleaved yes); made in house; host or cells: BL21(DE3) E. coli, co-expressed with GroEL-GroES
The assay can be described thus: In Vitro FRET (TR-FRET) BCKDK activity assay, phosphorylation of BCKDHE1α-E2 fusion substrate. Particulars: geometric mean, two significant figures; 15 μM ATP. Type of assay: biochemical. The protocol: BCKDK protein was generated using a pET vector containing from N- to C-terminus: 6×His, MBP, a TEV protease site (ENLYFQG), a biotin acceptor peptide ([…]), and human BCKDK (residues 31-412 of the protein pre-processing). Protein was co-expressed with GroEL-GroES in BL21(DE3) E. coli in LB media, and protein production was induced with 0.5 mM IPTG and 0.5 mg/mL L-arabinose at an OD600 of 1 and grown for 16 h at 26° C. Bacteria were lysed using a Microfluidizer in 100 mM potassium phosphate pH 7.5, 500 mM NaCl, 0.1 mM EDTA, 1% Tween-20, 0.25% Triton X-100, 10% glycerol, 1 mM DTT, and protease inhibitors. MBP-tagged protein was purified by affinity chromatography using amylose resin, and MBP was removed from BCKDK by TEV protease incubation followed by gel filtration chromatography in 50 mM HEPES pH 7.5, 500 mM NaCl, 300 mM L-Arginine, 2 mM MgCl2, 1 mM DTT, and 10% glycerol.
A pET vector containing E. coli LplA was expressed in BL21(DE3) E. coli in LB media, and protein production was induced with 0.75 mM IPTG at an OD600 of 1 and grown for 16 h at 30° C. Bacteria were lysed using a Microfluidizer in 50 mM sodium phosphate buffer pH 7.5, 350 mM NaCl, 1.5 mM MgCl2, and 1 mM DTT. LplA protein was precipitated from clarified lysate with 1 M ammonium sulfate and further purified by gel filtration chromatography in 50 mM sodium phosphate pH 7.5, 350 mM NaCl, 1.5 mM MgCl2, 1 mM DTT, and 10% glycerol.
The BCKDHE1α-E2 fusion substrate was cloned into a pET vector and contained from N- to C-terminus: the lipoyl binding domain of E2 (residues 62-160 pre-processing), a TEV protease site (LENLYFQG), residues 331-345 (pre-processing) from E1α, and 6×His (Tso, S. C. et al., J Biol Chem 2014, 289 (30), 20583-20593). The fusion substrate was expressed in BL21(DE3) E. coli in LB media, and protein production was induced with 0.75 mM IPTG at an OD600 of 1 and grown for 16 h at 30° C. Bacteria were lysed using a Microfluidizer in 50 mM sodium phosphate pH 7.5, 350 mM NaCl, 10 mM imidazole, 10% glycerol, 1 mM DTT, and protease inhibitors. […] For lipoylation, fusion substrate was incubated with LplA at a 10:1 (substrate:LplA) ratio in 20 mM sodium phosphate pH 7.4, 6 mM MgCl2, 4 mM ATP, 2 mM DTT, 3 mM DL-6,8-thioctic acid at 37° C. The reaction was monitored using an Agilent 6530 Q-TOF coupled to an Agilent 1290 UPLC. The final lipoylated fusion substrate was purified by gel filtration chromatography in 50 mM HEPES pH 7.5, 350 mM NaCl, 1.5 mM MgCl2, 1 mM DTT, 10% glycerol.
BCKDK activity was monitored by phosphorylation of a HIS-tagged fusion BCKDHE1α-E2 substrate protein as described above and was detected using a time resolved-fluorescence resonance energy transfer (TR-FRET) assay system. Compounds were spotted into a 384 well plate, and purified human BCKDK protein was added to the plated compound. After incubation, the LBD-linker-E1 phosphorylation sequence was added in the presence of 15 μM ATP. The reaction was terminated with EDTA. Phosphorylated substrate was recognized by the addition of rabbit anti-E1 phospho Ser293 antibodies (Bethyl Laboratories—A304-672A), and the TR-FRET signal was developed by addition of anti-HIS donor molecules (Europium; Perkin Elmer—AD0205, AD0110, AD0111) and anti-Rabbit acceptor molecules (Ulight; Perkin Elmer—TRF502D, TRF502M, TRF502R). Recognition of phosphorylated E1 brought donor and acceptor molecules into close proximity, and excitation at 320 nm caused energy transfer from the Europium donor to the Ulight acceptor dye, which in turn generated light at 665 nm. Signal intensity was proportional to the level of BCKDK-mediated substrate phosphorylation. Reactions were normalized to zero percent effect with DMSO and one hundred percent effect with 600 μM Radicicol, a known BCKDK inhibitor. IC50 curves were generated using ABASE software (IDBS, Boston Mass.).
Consider `CCc1cc(Cl)sc1-c1nnn[nH]1` [Example 27, 5-(5-chloro-3-ethylthiophen-2-yl)-1H-tetrazole], for which the IC50 turned out to be 4 µM.

Regarding `Cc1c(-c2nnn[nH]2)sc(Br)c1Br` [Example 18, 5-(4,5-dibromo-3-methylthiophen-2-yl)-1H-tetrazole], the IC50 was 4.5 µM.

The compound `Clc1cc(Cl)c(-c2nnn[nH]2)s1` [Example 12, 5-(3,5-Dichlorothiophen-2-yl)-1H-tetrazole, ammonium salt] registered an IC50 of 2 µM.

On to `Cc1cc(C(F)F)sc1-c1nnn[nH]1` [Example 21, 5-[5-(difluoromethyl)-3-methylthiophen-2-yl]-1H-tetrazole], for which 3.6 µM corresponded to half-maximal inhibition (IC50). On to `COc1ccsc1-c1nnn[nH]1` [Example 24, 5-(3-methoxythiophen-2-yl)-1H-tetrazole], for which the IC50 is above 300 µM. Compound `FC(F)(F)c1ccsc1-c1nnn[nH]1` [Example 22, 5-[3-(trifluoromethyl)thiophen-2-yl]-1H-tetrazole] returned an IC50 of 11 µM. `Oc1cc(Br)sc1-c1nnn[nH]1` [Example 15, 5-bromo-2-(1H-tetrazol-5-yl)thiophene-3-ol] registered an IC50 of 13 µM. Compound `Fc1cc(Cl)sc1-c1nnn[nH]1` [Example 30, 5-(5-chloro-3-fluorothiophen-2-yl)-1H-tetrazole] came in with an IC50 of 2.9 µM. As for `Cc1c(-c2nnn[nH]2)sc(Cl)c1Cl` [Example 11, 5-(4,5-Dichloro-3-methylthiophen-2-yl)-1H-tetrazole], it took 1.9 µM to reach half-maximal inhibition (IC50). Consider `Brc1csc(-c2nnn[nH]2)c1Br` [Example 17, 5-(3,4-dibromothiophen-2-yl)-1H-tetrazole], for which inhibition was half-maximal at 6.1 µM (IC50). As to `Cc1cc(C(F)(F)F)sc1-c1nnn[nH]1` [Example 20, 5-[3-methyl-5-(trifluoromethyl)thiophen-2-yl]-1H-tetrazole], the IC50 stood at 3.7 µM. Consider `Clc1cc(Br)sc1-c1nnn[nH]1` [Example 8, 5-(5-Bromo-3-chlorothiophen-2-yl)-1H-tetrazole], for which the IC50 amounted to 3.4 µM. The value for `Clc1ccsc1-c1nnn[nH]1` [Example 7, 5-(3-chlorothiophen-2-yl)-1H-tetrazole] was 11 µM; that for `Brc1ccsc1-c1nnn[nH]1` [Example 35, 5-(3-bromothiophen-2-yl)-1H-tetrazole] was 1.4 µM.

Take `Cc1ccsc1-c1nnn[nH]1` [Example 36, 5-(3-methylthiophen-2-yl)-1H-tetrazole]: half-maximal inhibition (IC50) required 6 µM. With `Clc1cc(Br)c(-c2nnn[nH]2)s1` [Example 19, 5-(3-bromo-5-chlorothiophen-2-yl)-1H-tetrazole], it took 4.1 µM to reach half-maximal inhibition (IC50). Compound `CCc1c(Cl)csc1-c1nnn[nH]1` [Example 3, 5-(4-Chloro-3-ethylthiophen-2-yl)-1H-tetrazole, ammonium salt] registered an IC50 of 1.1 µM. `COc1cc(Br)sc1-c1nnn[nH]1` [Example 16, 5-(5-bromo-3-methoxythiophen-2-yl)-1H-tetrazole] had an IC50 of 4.5 µM.

`c1cc(C2CC2)c(-c2nnn[nH]2)s1` [Example 26, 5-(3-cyclopropylthiophen-2-yl)-1H-tetrazole]: the IC50 is above 300 µM. The compound `Cc1c(-c2nnn[nH]2)sc(Cl)c1F` [Example 10, 5-(5-Chloro-4-fluoro-3-methylthiophen-2-yl)-1H-tetrazole] yielded an IC50 of 0.81 µM. Turning to `CCc1ccsc1-c1nnn[nH]1` [Example 25, 5-(3-ethylthiophen-2-yl)-1H-tetrazole], 9.8 µM corresponded to half-maximal inhibition (IC50). Take `Oc1ccsc1-c1nnn[nH]1` [Example 37, 2-(1H-tetrazol-5-yl)thiophene-3-ol]: the IC50 was 13 µM. In turn, `Fc1ccsc1-c1nnn[nH]1` [Example 28, 5-(3-fluorothiophen-2-yl)-1H-tetrazole] showed an IC50 of 16 µM. Under `FC(F)(F)c1cc(Cl)sc1-c1nnn[nH]1` [Example 23, 5-[5-chloro-3-(trifluoromethyl)thiophen-2-yl]-1H-tetrazole] stands 7.2 µM; under `Fc1cc(Cl)c(-c2nnn[nH]2)s1` [Example 31, 5-(3-chloro-5-fluorothiophen-2-yl)-1H-tetrazole], 3.6 µM. The value for `CCc1cc(C)c(-c2nnn[nH]2)s1` [Example 32, 5-(5-ethyl-3-methylthiophen-2-yl)-1H-tetrazole] was 15 µM; that for `Cc1cc(F)sc1-c1nnn[nH]1` [Example 2, 5-(5-Fluoro-3-methylthiophen-2-yl)-1H-tetrazole] was 3.6 µM; that for `CCc1c(Br)csc1-c1nnn[nH]1` [Example 4, 5-(4-Bromo-3-ethylthiophen-2-yl)-1H-tetrazole, ammonium salt] was 1.1 µM.

The compound `Clc1cc(C2CC2)c(-c2nnn[nH]2)s1` [Example 29, 5-(5-chloro-3-cyclopropylthiophen-2-yl)-1H-tetrazole] yielded an IC50 of 10 µM. As for `Cc1cc(Br)sc1-c1nnn[nH]1` [Example 33, 5-(5-bromo-3-methylthiophen-2-yl)-1H-tetrazole], the IC50 is 3.1 µM.

With `FC(F)c1cc(Cl)sc1-c1nnn[nH]1` [Example 6, 5-[5-Chloro-3-(difluoromethyl)thiophen-2-yl]-1H-tetrazole], the IC50 came to 1.1 µM.

`FC(F)c1ccsc1-c1nnn[nH]1` [Example 5, 5-[3-(Difluoromethyl)thiophen-2-yl]-1H-tetrazole] gave an IC50 of 2.5 µM. In turn, `CCc1cc(Br)c(-c2nnn[nH]2)s1` [Example 13, 5-(3-Bromo-5-ethylthiophen-2-yl)-1H-tetrazole] yielded an IC50 above 83 µM. For `Fc1cc(Br)c(-c2nnn[nH]2)s1` [Example 34, 5-(3-bromo-5-fluorothiophen-2-yl)-1H-tetrazole], the IC50 turned out to be 2.7 µM. Turning to `Cc1cc(Cl)c(-c2nnn[nH]2)s1` [Example 14, 5-(3-chloro-5-methylthiophen-2-yl)-1H-tetrazole], the IC50 was 2.6 µM.
